Active and inactive are the calls of the source. The rule behind the calls is not given here.
How the values were obtained:
[1] = target: T1, Androgen receptor (Homo sapiens) (UniProt P10275); conditions: HeLa
T1 sequence (whole entry): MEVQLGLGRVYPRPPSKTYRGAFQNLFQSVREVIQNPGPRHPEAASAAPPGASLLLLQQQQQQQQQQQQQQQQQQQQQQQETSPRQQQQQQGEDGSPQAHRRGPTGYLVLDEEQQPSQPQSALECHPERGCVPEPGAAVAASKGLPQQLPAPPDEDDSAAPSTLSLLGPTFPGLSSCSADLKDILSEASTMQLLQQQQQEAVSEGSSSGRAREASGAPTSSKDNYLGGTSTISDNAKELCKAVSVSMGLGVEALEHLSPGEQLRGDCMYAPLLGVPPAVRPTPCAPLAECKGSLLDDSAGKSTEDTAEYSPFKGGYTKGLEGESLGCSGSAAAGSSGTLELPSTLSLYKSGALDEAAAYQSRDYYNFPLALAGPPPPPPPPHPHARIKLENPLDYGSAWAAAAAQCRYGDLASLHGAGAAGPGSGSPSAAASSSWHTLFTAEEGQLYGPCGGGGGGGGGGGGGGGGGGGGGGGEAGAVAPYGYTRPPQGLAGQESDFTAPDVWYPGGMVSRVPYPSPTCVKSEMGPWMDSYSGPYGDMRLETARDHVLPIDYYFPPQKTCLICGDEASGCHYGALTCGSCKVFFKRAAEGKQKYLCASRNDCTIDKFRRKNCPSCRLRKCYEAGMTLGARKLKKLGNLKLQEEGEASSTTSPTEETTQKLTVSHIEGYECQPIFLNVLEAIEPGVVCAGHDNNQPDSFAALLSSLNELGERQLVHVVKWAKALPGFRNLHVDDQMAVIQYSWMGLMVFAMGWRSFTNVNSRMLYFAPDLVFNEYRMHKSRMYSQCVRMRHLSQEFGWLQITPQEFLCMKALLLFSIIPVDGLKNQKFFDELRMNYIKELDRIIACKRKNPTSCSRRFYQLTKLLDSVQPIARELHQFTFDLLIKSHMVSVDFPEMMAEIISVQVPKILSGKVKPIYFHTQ
Description: Agonist activity at androgen receptor expressed in HeLa cells assessed as effect on dihydrotestosterone-induced transcriptional activity by reporter gene assay

Androgen receptor [2] = target: T2, Androgen receptor (Homo sapiens, UniProt P10275); assay: biochemical
T2 sequence (P10275 whole entry): T1 sequence (whole entry)
Description: Displacement of [3H]mibolerone from androgen receptor expressed in CHOK1 cells

Androgen receptor [3] = target: T2, Androgen receptor
Description: Antagonist activity at androgen receptor expressed in HeLa cells assessed as inhibition of dihydrotestosterone-induced transcriptional activity by reporter gene assay

Mus musculus [4] = assay: Effect on subcutaneously dosed seminal vesicle wet weight in mouse; assay type: functional, organism-based
Mus musculus [5] = assay: Effect on po dosed seminal vesicle wet weight in mouse; assay type: functional, organism-based

CCCCN(C)C(=O)CCCCCCCC[C@@H]1CC2CC(=O)CC[C@]2(C)[C@H]2CC[C@]3(C)[C@@H](O)CC[C@H]3[C@H]12 (some centres not stated) gave an FI5 [1] of 550 nM, an IC50 (Androgen receptor [2]) of 550 nM and an IC50 (Androgen receptor [3]) of 3400 nM.

In the case of C[C@]12CCC(=O)C[C@@H]1CC(CCCCCCCC(=O)N1CCCC1)[C@@H]1[C@@H]2CC[C@]2(C)[C@@H](O)CC[C@@H]12 (some centres not stated), the FI5 [1] is reported as over 10000 nM, the IC50 (Androgen receptor [2]) is reported as 350 nM and the IC50 (Androgen receptor [3]) is reported as 300 nM.

With CN(C)C(=O)CCCCCCCC1C[C@H]2CC(=O)CC[C@]2(C)[C@H]2CC[C@]3(C)[C@@H](O)CC[C@H]3[C@H]12 (some centres not stated) the FI5 [1] was over 10000 nM, the Activity (Mus musculus [4]) was “Active” and the IC50 (Androgen receptor [2]) was 260 nM. The Activity (Mus musculus [5]) was “Active” and the IC50 (Androgen receptor [3]) was 190 nM.

CCCCNC(=O)CCCCCCCC1C[C@H]2CC(=O)CC[C@]2(C)[C@H]2CC[C@]3(C)[C@@H](O)CC[C@H]3[C@H]12 (some centres not stated) showed an FI5 [1] of 1600 nM and an IC50 (Androgen receptor [3]) of 6300 nM.

C[C@]12CC[C@H]3[C@@H]([C@H](CCCCCCCCCCCCC[S+]([O-])CCCC(F)(F)C(F)(F)F)CC4CC(=O)CC[C@@]43C)[C@@H]1CC[C@@H]2O (some centres not stated) was tested, and the FI5 [1] was over 10000 nM, the IC50 (Androgen receptor [2]) was over 10000 nM and the IC50 (Androgen receptor [3]) was 10000 nM.

C[C@]12CCC(=O)C[C@@H]1CC(CCCCCCCC(=O)N1CCOCC1)[C@@H]1[C@@H]2CC[C@]2(C)[C@@H](O)CC[C@@H]12 (some centres not stated) gave an FI5 [1] of over 10000 nM.

CCN(CC)C(=O)CCCCCCC1C[C@H]2CC(=O)CC[C@]2(C)[C@H]2CC[C@]3(C)[C@@H](O)CC[C@H]3[C@H]12 (some centres not stated) gave an FI5 [1] of 1700 nM, an IC50 (Androgen receptor [2]) of 330 nM and an IC50 (Androgen receptor [3]) of 530 nM.

CCCN(C)C(=O)CCCCCCCC1C[C@H]2CC(=O)CC[C@]2(C)[C@H]2CC[C@]3(C)[C@@H](O)CC[C@H]3[C@H]12 (some centres not stated) showed an FI5 [1] of over 10000 nM, an IC50 (Androgen receptor [2]) of 300 nM and an IC50 (Androgen receptor [3]) of 1100 nM.

CN(Cc1ccccc1)C(=O)CCCCCCCC1C[C@H]2CC(=O)CC[C@]2(C)[C@H]2CC[C@]3(C)[C@@H](O)CC[C@H]3[C@H]12 (some centres not stated) gave an FI5 [1] of over 10000 nM.

C[C@]12CCC(=O)C[C@@H]1CC(CCCCCCCC(N)=O)[C@@H]1[C@@H]2CC[C@]2(C)[C@@H](O)CC[C@@H]12 (some centres not stated) showed an FI5 [1] of 2400 nM, an IC50 (Androgen receptor [2]) of 260 nM and an IC50 (Androgen receptor [3]) of 450 nM.

Compound CCCCN(C)C(=O)CCCCCCCCCC[C@@H]1CC2CC(=O)CC[C@]2(C)[C@H]2CC[C@]3(C)[C@@H](O)CC[C@H]3[C@H]12 (some centres not stated) has an FI5 [1] of 1900 nM, an IC50 (Androgen receptor [2]) of 1900 nM and an IC50 (Androgen receptor [3]) of 1300 nM.

CN(C)C(=O)CCCCCCC1C[C@H]2CC(=O)CC[C@]2(C)[C@H]2CC[C@]3(C)[C@@H](O)CC[C@H]3[C@H]12 (some centres not stated) was tested, and the FI5 [1] was 490 nM, the IC50 (Androgen receptor [2]) was 110 nM and the IC50 (Androgen receptor [3]) was 200 nM.

CCCCN(C)C(=O)CCCCCCCC1C[C@H]2CC(=O)CC[C@]2(C)[C@H]2CC[C@]3(C)[C@@H](O)CC[C@H]3[C@H]12 (some centres not stated) gave an FI5 [1] of over 10000 nM, an IC50 (Androgen receptor [2]) of 280 nM and an IC50 (Androgen receptor [3]) of 340 nM.

CCCCCCN(CCCCCC)C(=O)CCCCCCCC1C[C@H]2CC(=O)CC[C@]2(C)[C@H]2CC[C@]3(C)[C@@H](O)CC[C@H]3[C@H]12 (some centres not stated) was tested, and the FI5 [1] was over 10000 nM, the IC50 (Androgen receptor [2]) was over 10000 nM and the IC50 (Androgen receptor [3]) was over 10000 nM.

With CCCNC(=O)CCCCCCCC1C[C@H]2CC(=O)CC[C@]2(C)[C@H]2CC[C@]3(C)[C@@H](O)CC[C@H]3[C@H]12 (some centres not stated) the FI5 [1] was over 10000 nM, the IC50 (Androgen receptor [2]) was 1600 nM and the IC50 (Androgen receptor [3]) was 1800 nM.

In the case of CCNC(=O)CCCCCCCC1C[C@H]2CC(=O)CC[C@]2(C)[C@H]2CC[C@]3(C)[C@@H](O)CC[C@H]3[C@H]12 (some centres not stated), the FI5 [1] is reported as over 10000 nM, the IC50 (Androgen receptor [2]) is reported as 1500 nM and the IC50 (Androgen receptor [3]) is reported as 940 nM.

CCCCN(C)C(=O)CCCCCCC[C@@H]1CC2CC(=O)CC[C@]2(C)[C@H]2CC[C@]3(C)[C@@H](O)CC[C@H]3[C@H]12 (some centres not stated) was tested, and the FI5 [1] was 280 nM, the IC50 (Androgen receptor [2]) was 280 nM and the IC50 (Androgen receptor [3]) was 340 nM.

C[C@]12CC[C@H]3[C@@H]([C@H](CCCCCCC[S+]([O-])CCCC(F)(F)C(F)(F)F)CC4CC(=O)CC[C@@]43C)[C@@H]1CC[C@@H]2O (some centres not stated) was tested, and the FI5 [1] was 200 nM, the IC50 (Androgen receptor [2]) was 960 nM and the IC50 (Androgen receptor [3]) was over 10000 nM.

With CCN(CC)C(=O)CCCCCCCC1C[C@H]2CC(=O)CC[C@]2(C)[C@H]2CC[C@]3(C)[C@@H](O)CC[C@H]3[C@H]12 (some centres not stated) the FI5 [1] was over 10000 nM, the IC50 (Androgen receptor [2]) was 120 nM and the IC50 (Androgen receptor [3]) was 300 nM.

In the case of CCCCCCNC(=O)CCCCCCCC1C[C@H]2CC(=O)CC[C@]2(C)[C@H]2CC[C@]3(C)[C@@H](O)CC[C@H]3[C@H]12 (some centres not stated), the FI5 [1] is reported as over 10000 nM, the IC50 (Androgen receptor [2]) is reported as 2100 nM and the IC50 (Androgen receptor [3]) is reported as 6600 nM.

CCN(C)C(=O)CCCCCCCC1C[C@H]2CC(=O)CC[C@]2(C)[C@H]2CC[C@]3(C)[C@@H](O)CC[C@H]3[C@H]12 (some centres not stated) was tested, and the FI5 [1] was over 10000 nM, the IC50 (Androgen receptor [2]) was 660 nM and the IC50 (Androgen receptor [3]) was 420 nM.

Work on C[C@]12CC[C@H]3[C@@H]([C@H](CCCCCCCCCCC[S+]([O-])CCCC(F)(F)C(F)(F)F)CC4CC(=O)CC[C@@]43C)[C@@H]1CC[C@@H]2O (some centres not stated) yielded an FI5 [1] of over 10000 nM, an IC50 (Androgen receptor [2]) of over 10000 nM and an IC50 (Androgen receptor [3]) of over 10000 nM.

Compound CC(C)N(C)C(=O)CCCCCCCC1C[C@H]2CC(=O)CC[C@]2(C)[C@H]2CC[C@]3(C)[C@@H](O)CC[C@H]3[C@H]12 (some centres not stated) has an FI5 [1] of over 10000 nM, an IC50 (Androgen receptor [2]) of 430 nM and an IC50 (Androgen receptor [3]) of 420 nM.

With C[C@]12CC[C@H]3[C@@H]([C@H](CCCCC[S+]([O-])CCCC(F)(F)C(F)(F)F)CC4CC(=O)CC[C@@]43C)[C@@H]1CC[C@@H]2O (some centres not stated) the FI5 [1] was 16 nM, the IC50 (Androgen receptor [2]) was 6800 nM and the IC50 (Androgen receptor [3]) was over 10000 nM.

In the case of CCCCN(C)C(=O)CCCCCCCCCCC[C@@H]1CC2CC(=O)CC[C@]2(C)[C@H]2CC[C@]3(C)[C@@H](O)CC[C@H]3[C@H]12 (some centres not stated), the FI5 [1] is reported as 9900 nM, the IC50 (Androgen receptor [2]) is reported as 9900 nM and the IC50 (Androgen receptor [3]) is reported as 3500 nM.

CNC(=O)CCCCCCCC1C[C@H]2CC(=O)CC[C@]2(C)[C@H]2CC[C@]3(C)[C@@H](O)CC[C@H]3[C@H]12 (some centres not stated) gave an FI5 [1] of over 10000 nM, an IC50 (Androgen receptor [2]) of 710 nM and an IC50 (Androgen receptor [3]) of 480 nM.

Compound C[C@]12CC[C@H]3[C@@H]([C@H](CCCCCCCCC[S+]([O-])CCCC(F)(F)C(F)(F)F)CC4CC(=O)CC[C@@]43C)[C@@H]1CC[C@@H]2O (some centres not stated) has an FI5 [1] of 490 nM, an IC50 (Androgen receptor [2]) of 110 nM and an IC50 (Androgen receptor [3]) of 2900 nM.

Compound C[C@]12CCC(=O)C[C@@H]1CC(CCCCCCCC(=O)N1CCCCC1)[C@@H]1[C@@H]2CC[C@]2(C)[C@@H](O)CC[C@@H]12 (some centres not stated) has an FI5 [1] of over 10000 nM.

Compound CCCCN(C)C(=O)CCCCCCCCC[C@@H]1CC2CC(=O)CC[C@]2(C)[C@H]2CC[C@]3(C)[C@@H](O)CC[C@H]3[C@H]12 (some centres not stated) has an FI5 [1] of 570 nM, an IC50 (Androgen receptor [2]) of 570 nM and an IC50 (Androgen receptor [3]) of 1800 nM.

Source: ChEMBL document CHEMBL1144524, “Discovery of 7alpha-substituted dihydrotestosterones as androgen receptor pure antagonists and their structure-activity relationships” (Bioorg Med Chem, 2007)
